EC50 and inhibition in vivo data for four compounds are collected here from US12703706B2, “Anthelmintic compounds comprising a thienopyridine structure” (Intervet Inc., priority 2020, dated 2026).

Bounds are passed on as bounds.

For assay [1], the system named is D. immitis microfilaria (L1). Kind of assay: In vitro assay Dirofilaria immitis L1, motility of microfilaria. To be noted: 72 h, read-out: EC50 value, Dirofilaria immitis L1, reduction in motility vs DMSO, incubation 3 days. Format: cell-based.
The target in assay [2] is human Maxi K channel (BK channel), KCNMA1 (KCa1.1) and beta1 (KCNMB1) subunits (Homo sapiens, UniProt Q12791).
Procedure: In Vitro Assay: Agonistic Activity at the Human Maxi K Channel (BK Channel)
A CHO K1 cell line was stably transfected with the KCNMA1 (KCa1.1, U11058) and betal (KCNMB1) subunits of the human Maxi K channel (Ponte et al, Molecular Pharmacology 2012, 81(4), 567-577).
Cells were seeded in microtiter plates (black 384-well MTP, clear bottom) in a concentration of 20,000 cells/well in 25 μl medium and cultured for 20 to 24 hours at 37° C. and 5% CO2. After incubation, 25 μl of FMP-dye Blue-Tyrode's was added to each well and incubated at room temperature for 30 min. Ten minutes after addition of 12.5 μl compound solution, the plates are transferred to the FLIPR for measurement.
For the membrane potential measurements, plates were placed in the FLIPR Penta (Molecular Devices). The baseline measurement of the fluorescence was stared for 20 sec (Exc. 510-545 nm, Emm. 565-625 nm). Potential channel opening measurement was started by addition of 25 μl KCl-Tyrode (final assay concentration of the KCl-Tyrode: 70 mM KCl, 2 mM CaCl2, 1 mM MgCl2, 0.8 mM NaH2PO4, 5 mM Glucose, 28 mM Hepes, pH 7.4, including the voltage sensitive dye). The complete measurement takes 150 s.
EC50 values were determined in triplicate utilizing compound dilution series. The data were determined at least in two independent tests. The data were proceeded by using the ActivityBase XE Runner software (IDBS) for curve fitting and calculation of the half-maximal effective concentration.
Assay [3] relates to A. viteae microfilaria (L1). Description: In vitro assay Acanthocheilonema viteae L1, motility of microfilaria. To be noted: 72 h, read-out: EC50 value, Acanthocheilonema viteae L1, reduction in motility vs DMSO, incubation 3 days.
Procedure: Approximately 500 A. viteae microfilaria were added to a microtiter plate containing a nutrient medium and the test compound in DMSO at varying concentrations. After incubation for 3 days, activity was evaluated as reduction in motility as compared to DMSO as negative control.
Compounds were tested in duplicates. Based on the concentration response curves EC50 values were calculated.
The test system of the next assay is Haemonchus contortus. Kind of assay: In vivo efficacy against Haemonchus contortus in jirds. To be noted: in Meriones unguiculatus, 72 h, read-out: reduction of the Haemonchus contortus count.

For orientation: EC50 means the concentration that produces a half-maximal response.

Sequence of human Maxi K channel (BK channel), KCNMA1 (KCa1.1) and beta1 (KCNMB1) subunits (Q12791 1-1178 isoform Q12791-5): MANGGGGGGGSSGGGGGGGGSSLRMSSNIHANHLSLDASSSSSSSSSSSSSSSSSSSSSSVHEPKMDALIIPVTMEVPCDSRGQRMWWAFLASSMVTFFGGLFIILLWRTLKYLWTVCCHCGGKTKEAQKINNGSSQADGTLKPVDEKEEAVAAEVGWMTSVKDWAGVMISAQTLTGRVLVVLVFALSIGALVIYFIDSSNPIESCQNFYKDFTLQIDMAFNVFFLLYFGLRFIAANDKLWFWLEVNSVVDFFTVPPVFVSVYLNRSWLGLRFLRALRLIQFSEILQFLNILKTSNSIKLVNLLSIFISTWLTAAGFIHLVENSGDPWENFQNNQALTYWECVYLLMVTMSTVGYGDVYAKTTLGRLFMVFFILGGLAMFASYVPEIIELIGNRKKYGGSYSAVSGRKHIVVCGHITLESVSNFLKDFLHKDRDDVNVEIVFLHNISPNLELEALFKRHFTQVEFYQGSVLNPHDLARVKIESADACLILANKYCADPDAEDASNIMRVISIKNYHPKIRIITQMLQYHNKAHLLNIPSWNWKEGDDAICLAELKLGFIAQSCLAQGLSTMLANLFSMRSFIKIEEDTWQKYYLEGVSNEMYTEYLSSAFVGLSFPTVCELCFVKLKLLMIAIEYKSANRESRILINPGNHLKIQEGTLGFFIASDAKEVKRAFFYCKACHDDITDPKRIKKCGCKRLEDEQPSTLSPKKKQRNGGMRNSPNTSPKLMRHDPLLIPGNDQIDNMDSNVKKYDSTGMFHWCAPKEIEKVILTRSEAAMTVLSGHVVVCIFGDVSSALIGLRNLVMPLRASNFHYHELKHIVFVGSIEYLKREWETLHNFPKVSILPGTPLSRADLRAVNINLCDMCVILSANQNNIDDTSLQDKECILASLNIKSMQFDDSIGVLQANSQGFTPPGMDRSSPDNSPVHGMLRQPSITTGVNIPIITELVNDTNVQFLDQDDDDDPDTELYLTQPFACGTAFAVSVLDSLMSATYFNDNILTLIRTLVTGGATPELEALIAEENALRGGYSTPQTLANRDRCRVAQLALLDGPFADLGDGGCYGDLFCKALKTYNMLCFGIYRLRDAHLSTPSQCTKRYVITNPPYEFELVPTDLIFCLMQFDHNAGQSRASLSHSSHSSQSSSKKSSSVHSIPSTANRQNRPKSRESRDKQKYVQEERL
Sequence of human Maxi K channel (BK channel), KCNMA1 (KCa1.1) and beta1 (KCNMB1) subunits (Q16558 whole entry partner): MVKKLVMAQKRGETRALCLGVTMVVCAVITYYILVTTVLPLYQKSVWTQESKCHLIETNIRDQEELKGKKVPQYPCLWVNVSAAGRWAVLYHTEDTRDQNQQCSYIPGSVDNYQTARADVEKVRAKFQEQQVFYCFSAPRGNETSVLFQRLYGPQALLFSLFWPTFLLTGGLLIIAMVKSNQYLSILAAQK
Procedure for Haemonchus contortus: In Vivo Assay: Efficacy Against Haemonchus contortus in Jirds
The jirds were orally infected with approximately 1500 third-stage larvae of Haemonchus contortus. Ten days after infection, the jirds in the treatment groups were treated once either orally or subcutaneously with compounds at a dose of 10 mg per kg bodyweight. For treatment, compounds were dissolved in a mixture of 10% Transcutol, 10% Cremophor EL and 80% physiological sodium chloride solution. Three days after treatment, the jirds were necropsied, and the larvae burden in the stomach was determined. The efficacy was defined as the reduction of the mean larvae count in the infected jirds of the treatment group in comparison to the infected jirds in an untreated control group (negative control).

As to `O=C(NC1COc2ccccc21)c1cnc2c(-c3cccc(Cl)c3)csc2c1N1CCOCC1` (stereo not drawn) [Compound 80], the 50% effective concentration (EC50) in assay [1] is less than 10 µM; in assay [2], more than 30 µM.
In the case of `O=C(Nc1cccc2ccccc12)c1cnc2c(-c3cccc(Cl)c3Cl)csc2c1N1CCOCC1` [Compound 14], the EC50 in assay [1] is less than 10 µM; in assay [2], more than 30 µM.
On to `CN1CCN(c2c(C(=O)N[C@H]3CCOc4ccccc43)cnc3c(-c4cccc(Cl)c4Cl)csc23)CC1` [Compound 17], for which the EC50 was less than 10 µM in assay [1], less than 10 µM in assay [3] and more than 30 µM in assay [2].
For the compound `Cc1sc2c(N(C)C)c(C(=O)N[C@H]3CCOc4ccccc43)cnc2c1-c1cccc(Cl)c1Cl` [Compound 36, (S)—N-(chroman-4-yl)-3-(2,3-dichlorophenyl)-7-dimethylamino-2-methylthieno[3,2-b]pyridine-6-carboxamide], in the assay with Haemonchus contortus, the inhibition in vivo at 10 mg/kg is not below 80%. Moreover, in assay [2], the concentration for a half-maximal effect (EC50) was more than 30 µM.
